Results from patent US12427144B2, “Compounds and methods for the targeted degradation of androgen receptor” (Arvinas Operations, Inc., priority 2019, dated 2025).

target: T1, androgen receptor (Homo sapiens, UniProt P10275); experiment: AR ELISA assay (PathScan AR Sandwich ELISA), VCaP cells; assay type: cell-based; conditions: drug treatment 5 hours
T1 construct: endogenous in cells; host or cells: VCaP
T1 sequence (P10275 1-920): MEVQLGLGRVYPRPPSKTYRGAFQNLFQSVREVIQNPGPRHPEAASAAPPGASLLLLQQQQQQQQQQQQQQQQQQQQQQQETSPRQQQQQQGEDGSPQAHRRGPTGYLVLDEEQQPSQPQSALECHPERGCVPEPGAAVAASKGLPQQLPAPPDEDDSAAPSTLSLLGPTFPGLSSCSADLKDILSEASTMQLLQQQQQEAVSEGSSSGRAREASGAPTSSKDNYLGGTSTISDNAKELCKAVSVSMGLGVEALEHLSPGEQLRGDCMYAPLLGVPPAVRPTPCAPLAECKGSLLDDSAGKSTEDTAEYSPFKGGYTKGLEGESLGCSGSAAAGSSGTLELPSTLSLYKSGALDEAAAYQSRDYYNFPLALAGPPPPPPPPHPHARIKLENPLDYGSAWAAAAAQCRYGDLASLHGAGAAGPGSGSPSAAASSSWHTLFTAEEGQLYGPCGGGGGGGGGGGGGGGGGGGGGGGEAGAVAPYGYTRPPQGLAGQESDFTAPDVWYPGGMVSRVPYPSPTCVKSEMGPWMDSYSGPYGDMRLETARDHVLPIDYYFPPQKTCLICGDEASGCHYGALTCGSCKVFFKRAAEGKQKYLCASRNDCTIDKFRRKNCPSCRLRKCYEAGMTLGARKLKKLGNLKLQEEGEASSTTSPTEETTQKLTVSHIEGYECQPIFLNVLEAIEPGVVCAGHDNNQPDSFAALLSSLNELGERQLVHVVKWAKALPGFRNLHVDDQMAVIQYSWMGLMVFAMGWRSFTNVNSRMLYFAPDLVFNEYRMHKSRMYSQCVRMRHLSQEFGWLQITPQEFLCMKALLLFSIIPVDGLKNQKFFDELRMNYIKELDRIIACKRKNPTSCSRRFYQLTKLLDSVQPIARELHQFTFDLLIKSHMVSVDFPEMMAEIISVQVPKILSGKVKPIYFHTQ
Method: Compounds were evaluated in this assay in LNCaP and/or VCaP cells utilizing similar protocols. The protocols used with VCaP cells are described below. The androgen receptor ELISA assay was performed using PathScan AR Sandwich ELISA (Cell Signaling Catalog #12850) according to the following assay steps:
VCaP cells were seeded at 40,000 cells/well at a volume of 100 μL/well in VCaP assay medium [Phenol red free RPMI (Gibco Cat #11835-030); 5% Charcoal Stripped (Dextran treated) FBS (Omega Scientific, Cat #FB-04); 1% penstrep (Life Technologies, Gibco Cat #: 10378-016)] in Corning 3904 plates. The cells were incubated for a minimum of 3 days. Cells were dosed with PROTACs diluted in 0.01% DMSO and the drug treatment was allowed for 5 hours.
AR ELISA (Cell Signaling) was performed as follows. 1× Cell Signaling Cell lysis buffer was made (Catalogue #9803; comes with the kit). Media from the treated wells is aspirated, and 100 μL 1× cell lysis buffer/well is added. The cells were placed on a shaker for 10 minutes at 4° C. Twenty microliters of lysate was transferred to 100 μl of Diluent in ELISA plate (0.15 μg/ml-[…]). The lysate-diluent mixture was shaken for 30 minutes at 37° C. Allow mouse AR antibody, anti-mouse antibody, TMB, and STOP solution to come to room temperature. The 1×ELISA buffer included in kit was made and loaded in the reservoir. Media from the plates was discarded, the ELISA plate tapped hard on paper towel, and washed 4×200 μl ELISA wash buffer using a plate washer.
One-hundred (100) […] of mouse AR detection Ab was added; the plates were covered and shaken at 37° C. for 1 hour; media was discarded from the plates, the plates were tapped on a paper towel, washed 4× with 200 μL ELISA wash buffer with a plate washer.
One-hundred (100) […] of anti-mouse—HRP conjugated Ab (comes with the kit) was added; the plates were covered and shaken at 37° C. for 30 minutes; the TMB reagent was allowed to come to room temperature; the media was discard from the plate, the plates were tapped on paper towel, washed 4× with 200 μL of ELISA wash buffer; the plates were tapped the plates on paper towel. One-hundred (100) L of TMB was added and the plates shaken for 2 minutes—while watching for color development. One-hundred (100) L Stop solution was added when light blue color developed. Plates were shaken and read at 450 nm.
Progression of prostate cancer in patients treated with anti-androgen therapy usually involves one of several mechanisms of enhanced Androgen Receptor (AR) signaling, including increased intratumoral androgen synthesis, increased AR expression and AR mutations. PROTACs (PROteolysis TArgeting Chimera), which use bi-functional molecules that simultaneously bind a target of choice and an E3 ligase, cause ubiquitination via induced proximity and degradation of the targeted, pathological protein. As opposed to traditional target inhibition, which is a competitive process, degradation is a progressive process. As such, it is less susceptible to increases in endogenous ligand, target expression, or mutations in the target. Thus, this technology appears to be ideal for addressing the mechanisms of AR resistance in patients with prostate cancer. Data was analyzed and plotted using GraphPad Prism software.

SMILES	DC50	Dmax
Cc1cc(O[C@H]2C(C)(C)[C@H](NC(=O)c3cnc(N4CCC(CN(C(C)C)[C@H]5C[C@H](Oc6ccc(C(=O)NC7CCC(=O)NC7=O)cc6)C5)CC4)nc3)C2(C)C)cc(C)c1C#N (stereo partly drawn) [Compound 12, N-((1R,3R)-3-(4-cyano-3,5-dimethylphenoxy)-2,2,4,4-tetramethylcyclobutyl)-2-(4-((((1R,3R)-3-(4-((2,6-dioxopiperidin-3-yl)carbamoyl)phenoxy)cyclobutyl)(isopropyl)amino)methyl)piperidin-1-yl)pyrimidine-5-carboxamide]	< 1 nM	≥ 70%
Cc1cc(O[C@H]2C(C)(C)[C@H](NC(=O)c3ccc(N4CCC(CN5CCN(c6ccnc(C(=O)NC7CCC(=O)NC7=O)c6)CC5)CC4)cc3)C2(C)C)cc(C)c1C#N (stereo partly drawn) [Compound 10, 4-(4-((1-(4-(((1R,3R)-3-(4-cyano-3,5-dimethylphenoxy)-2,2,4,4-tetramethylcyclobutyl)carbamoyl)phenyl)piperidin-4-yl)methyl)piperazin-1-yl)-N-(2,6-dioxopiperidin-3-yl)picolinamide]	< 1 nM	50 to 70%
Cc1cc(O[C@H]2C(C)(C)[C@H](NC(=O)c3ccc(N4CCC(CN5CCN(c6ccc(C(=O)NC7CCC(=O)NC7=O)cc6)CC5)CC4)nn3)C2(C)C)cc(C)c1C#N (stereo partly drawn) [Compound 2, N-((1R,3R)-3-(4-cyano-3,5-dimethylphenoxy)-2,2,4,4-tetramethylcyclobutyl)-6-(4-((4-(4-((2,6-dioxopiperidin-3-yl)carbamoyl)phenyl)piperazin-1-yl)methyl)piperidin-1-yl)pyridazine-3-carboxamide]	< 1 nM	≥ 70%
CC(C)N(CC1CCN(c2cnc(C(=O)N[C@H]3C(C)(C)[C@H](Oc4ccc(C#N)c(Cl)c4)C3(C)C)cn2)CC1)[C@H]1C[C@H](Oc2ccc(C(=O)NC3CCC(=O)NC3=O)cc2)C1 (stereo partly drawn) [Compound 16, N-((1R,3R)-3-(3-chloro-4-cyanophenoxy)-2,2,4,4-tetramethylcyclobutyl)-5-(4-((((1R,3R)-3-(4-((2,6-dioxopiperidin-3-yl)carbamoyl)phenoxy)cyclobutyl)(isopropyl)amino)methyl)piperidin-1-yl)pyrazine-2-carboxamide]	1 to 10 nM	< 50%
Cc1cc(O[C@H]2C(C)(C)[C@H](NC(=O)c3cnc(N4CCC(CN(C(C)C)[C@H]5C[C@H](Oc6ccc(C(=O)NC7CCC(=O)NC7=O)cc6)C5)CC4)cn3)C2(C)C)cc(C)c1C#N (stereo partly drawn) [Compound 13, N-((1R,3R)-3-(4-cyano-3,5-dimethylphenoxy)-2,2,4,4-tetramethylcyclobutyl)-5-(4-((((1R,3R)-3-(4-((2,6-dioxopiperidin-3-yl)carbamoyl)phenoxy)cyclobutyl)(isopropyl)amino)methyl)piperidin-1-yl)pyrazine-2-carboxamide]	1 to 10 nM	50 to 70%

Further lines, results first:

DC50	Dmax	SMILES
< 1 nM	50 to 70%	Cc1cc(O[C@H]2C(C)(C)[C@H](NC(=O)c3cnc(N4CCC(CN(C(C)C)[C@H]5C[C@H](Oc6cccc(C(=O)NC7CCC(=O)NC7=O)c6)C5)CC4)nc3)C2(C)C)cc(C)c1C#N (stereo partly drawn) [Compound 11, N-((1R,3R)-3-(4-cyano-3,5-dimethylphenoxy)-2,2,4,4-tetramethylcyclobutyl)-2-(4-((((1R,3R)-3-(3-((2,6-dioxopiperidin-3-yl)carbamoyl)phenoxy)cyclobutyl)(isopropyl)amino)methyl)piperidin-1-yl)pyrimidine-5-carboxamide]
< 1 nM	≥ 70%	CC1(C)[C@H](NC(=O)c2ccc(N3CCC(CN4CCN(c5ccc(C(=O)NC6CCC(=O)NC6=O)cc5)CC4)CC3)cc2)C(C)(C)[C@H]1Oc1ccc(C#N)c(Cl)c1 (stereo partly drawn) [Compound 7, N-((1R,3R)-3-(3-chloro-4-cyanophenoxy)-2,2,4,4-tetramethylcyclobutyl)-4-(4-((4-(4-((2,6-dioxopiperidin-3-yl)carbamoyl)phenyl)piperazin-1-yl)methyl)piperidin-1-yl)benzamide]
